Assay [1] deals with ventricular myocytes (type 2 ryanodine receptor). As to the kind of experiment: Anti-arrhythmic properties in isolated ventricular myocytes (calcium transients and cell contraction, IonOptix). Particulars: 10 nM isoproterenol; for anti-arrhythmic properties (ryanodine dependent arrhythmic cells): VB574 10 nM, 100 nM or 1 μM, compound IV 1 μM, 1 Hz stimulation. It counts as cell-based, murine. As to the method:
Compounds 20,21,22-trinor-4(RS)-4-F4t-NeuroP (compound of Formula III, VB574) and monohydroxylated derivative of 4-F4t-NeuroP (Compound IV) were evaluated for their anti-arrhythmic properties. Calcium transients and cell contraction was measured by the photometric system ionOptix®.
The photometric system IonOptix® can provide real-time, simultaneous acquisition of fluorescence photometry with sarcomere length measurements. For the study of isolated myocytes, the system includes a pacemaker that offers full control of the stimulation pulse duration, the frequency and the voltage. Thus, the photometric system IonOptix® puts in correlation the calcium transients and the shortening of the electrically stimulated myocytes (1 Hz, 20 V, FIG. 7). Calcium was studied by the use of a ratiometric fluorescent calcium probe (indo-1-AM, excitation wavelength 360±10 nm, emission wavelength at 405±10 nm and 485±10 nm).
To measure the intracellular calcium, the first step was to bring ventricular myocytes load into contact with an amount of indo-1-AM. To make it liposoluble, indo-1 was esterified on its carboxylic functions to give indo-1-AM. Once present in the cell, esterases allow the release of Indo-1 carboxylic functions enabling it to bind to the intracellular calcium. The incorporation time was predetermined to 30 minutes. This time was chosen following experiments using different times of incubation and 30 minutes was the time giving a good ratio/noise ratio and no obvious perturbation of cellular calcium homeostasis. The incubation time of the probe is critical because too low load generates a weak signal while excessive exposure will excessively increase the buffering capacity of the cytoplasm for calcium.
Once loaded and the cells arranged on the measuring system by means of a tank containing Tyrode salt solution (450 μL), the probe was excited by a xenon lamp at a wavelength of 360 nm. Through an optical wavelength filter, the apparatus collects the fluorescence emitted from the Indo-1 at two different wavelengths: 405±10 nm and 485±10 nm. The first wavelength represents the fluorescence of the probe bound to calcium and the second wavelength represents the fluorescence of the free probe. The ratio of these two wavelengths reflects the concentration of intracellular calcium. It is thus possible to observe calcium transients in ventricular myocytes systole but also to observe the diastolic calcium when the stimulation is stopped.
To measure the contraction, striation of cardiac cells due to the presence of sarcomeres was used. […] The recorded signal is similar to a sine function. […]
Thus, to evaluate the potential RyR stabilizing effect of the 4-F4T-neuroprostane derivatives (compounds III and IV), the compounds were applied, and the percentage of arrhythmic cells was measured.

For assay [2], the system named is RyR2. The following applies: previously reported (ref. 21); cited from earlier work.

“Also recorded” adds a separate entry of the source.

For `CC/C=C\C/C=C\C[C@@H]1[C@H](/C=C/C(O)CCC(=O)O)[C@@H](O)C[C@H]1O` (mixture of isomers) [compound III, (E)-6-((1S,2R,3R,5S)-3,5-dihydroxy-2-((2Z,5Z)-octa-2,5-dien-1-yl)cyclopentyl)-4-hydroxyhex-5-enoic Acid], the “anti-arrhythmic properties (ryanodine dependent arrhythmic cells)” value in assay [1] was “show anti-arrhythmic properties indicative of an interaction with the RyR”.

As to `CC/C=C\C/C=C\C/C=C\C/C=C\C/C=C\C/C=C\CCC(=O)O` [DHA, docosahaenoic acid], the “cardiac anti-arrhythmic effect, RyR2 stabilization” value in assay [2] was “could exert a cardiac anti-arrhythmic effect due to a stabilization of the cardiac isoform of ryanodine receptor, RyR2”.

For the compound `CC/C=C\C/C=C\C/C=C\C[C@H]1CC[C@H](O)[C@H]1/C=C/C(O)CCC(=O)O` (some centres unmarked) [compound IV], the “anti-arrhythmic properties (ryanodine dependent arrhythmic cells)” value in assay [1] is reported as “show anti-arrhythmic properties indicative of an interaction with the RyR”.

Turning to `CC(C)NCC(O)c1ccc(O)c(O)c1` (centres unmarked) [isoproterenol], in assay [1], the amplitude of contractions entry is recorded as “increase in the amplitude of contractions” and the “extrasystole ventricular contraction (ESV)” value was “promotes the development of ESV; also recorded: promote the development of ExtraSystole Ventricular contraction (ESV)”.

The values are drawn from patent publication US20260373164A1, “4(RS)-4-F4-NEUROPROSTANE DERIVATIVES (4-F4T-NEUROP) AND THEIR USE IN TREATING VENTILATOR INDUCED DIAPHRAGMATIC DYSFUNCTION AND OTHER DISEASES” (INSTITUT NATIONAL DE LA SANTÉ ET DE LA RECHERCHE MÉDICALE, priority 2022, published 2026).
